Earlier results in US20240058323A1, “PHARMACEUTICAL COMPOSITION CONTAINING PYRROLOQUINOLINE QUINONE TRILITHIUM SALT NONAHYDRATE COMPOUND, CAPSULE, AND PREPARATION METHOD THEREFOR” (SHANGHAI RAISING PHARMACEUTICAL CO., LTD, priority 2020, published 2024).
Counter-ions that a name gives are not always drawn.

Conditions: crystalline nonahydrate API

- temperature above which water is rapidly and irreversibly lost: higher than 60 °C
SMILES: O=C(O)c1cc(C(=O)O)c2c(n1)C(=O)C(=O)c1cc(C(=O)O)[nH]c1-2 [4,5-dioxo-4,5-dihydro-1H-pyrrolo[2,3-f]quinoline-2,7,9-tricarboxylic acid lithium salt nonahydrate compound]
